Columns and labels:
[1] = system: signs and symptoms of dry eye; test: Study of compound 1001 in dry eye: multi-center, double-masked, randomized, placebo-controlled; format: in vivo, human patients; conditions: for change in ocular discomfort as compared to vehicle (ORA Ocular Discomfort Scale), improvement: dose C (275.6 μg/mL)
Source text: The objective of this study was to compare the efficacy of compound 1001 to placebo (vehicle minus active) for the treatment of the signs and symptoms of dry eye, in a multi-center, double-masked, randomized, placebo-controlled study in which 100 human patients were equally randomized into one of three active treatment groups or placebo and all treatment groups were exposed to identical humidity, temperature, and wind conditions which exacerbated the symptoms of dry eye. During a 14 day study run-in period prior to randomization (e.g., day −14 to day 0), all patients received placebo bilaterally two times per day (BID). At the time of treatment randomization (e.g., day 0), patients were exposed to 90 minutes of identical humidity, temperature, and wind conditions which exacerbated the symptoms of dry eye after which patients were stratified based on the following criterion: Central corneal staining post-exposure<2.5 or >3.0. Patients eligible to be randomized received one of the following treatments to be administered as approximately a 30 μL drop to both eyes BID: 1) Compound 1001 at dose A (26.4 μg/mL) Ophthalmic Solution; 2) Compound 1001 at dose B (87.8 μg/mL) Ophthalmic Solution; 3) Compound 1001 at dose C (275.6 μg/mL) Ophthalmic Solution; 4) Placebo Ophthalmic Solution (Vehicle minus active). Brief Summary of Visit Schedule. […] The primary endpoint of mean ocular discomfort in the conditions for exacerbating the symptoms of dry eye using the ORA Ocular Discomfort Scale (during the 90 minute exposure) was summarized statistically (m, mean, standard deviation, median, min and max), and analyzed with 1-sided t-tests comparing the best dose to placebo with a p-value<0.025 considered significant. […] Ocular discomfort during this exposure period was measured using the ORA Ocular Discomfort Scale with the ocular discomfort score being the average of all time points during exposure. Ocular discomfort was measured again at visit 5 (e.g., day 29). […] Symptoms of grittiness, dryness were measured on environmental day 28 on a visual analog scale of 0-5.

[2] = Ocular PK (distribution) study in Dutch-belted rabbits, topical ocular dosing, compound 1003 measured by LC/MS/MS; format: in vivo; conditions: topical ocular administration of compounds 1001 and 1002 to rabbits, compared with each other
Procedure: The ocular distribution of compound 1001,
[drawing 220] in the ocular tissues of Dutch-belted rabbits when administered topically to the surface of the eye was evaluated.
Healthy, young adult Dutch-belted rabbits (male/female; at least 1.5 kg) were acclimated for at least 7 days prior to initiation of the study. Prior to the initiation of the study, the eyes of the rabbits were examined to ensure that the eyes were free of any defects that may affect the integrity of the study. Examinations were performed by a qualified observer.
Animals were dosed via the topical ocular route using a pipettor system which delivered a 30 μL dose to each eye. Each animal was dosed at T=0. The right eye received a dose concentration of 300 μg/mL of compound 1001 and the left eye received a dose concentration of 300 μg/mL of compound 1002. At the intervals noted in Table 3, the animals were sacrificed. […]
Spiking solutions for standards were prepared by diluting compound 1003 as its sodium salt (e.g., M is Na) (dissolved in ethanol) in ethanol spanning the concentration range of 0.100 to 4000 ng/mL of compound 1003. Two standard curves were extracted and subsequently analyzed one before and one after the samples. […]
Compound 1003 in the homogenized/extracted/dried/reconstituted samples was analyzed by LC/MS/MS using D4-PGE2 as the internal standard. […]

[3] = Chemical stability study, HPLC purity (% area) over time; format: physicochemical; conditions: for % Area Compound / % Area Impurity: 500 μg/mL ophthalmic formulation, pH 5.5, 5° C.; for time the reference solution was stable: reference solution in water/absolute ethanol (90/10 v/v), stored at 5° C.±3° C., protected from light
Procedure: The chemical stability of compounds 1001 and 1002 was measured via HPLC analysis of the purity of these compounds over time. The purity assay of active components using percent area (% area) and impurities reported as percent area (% area) were measured by HPLC using the following conditions:
A sample diluent was prepared with water/absolute ethanol (90/10 v/v).
Reference solutions of compounds 1001 and 1002 were prepared by weighing approximately 10 mg (±2 mg) of a 1 mg/mL stock solution of compound 1001 or 1002 into a 1 mL amber volumetric flask. Approximately 0.5 mL of sample diluent was added and the solution swirled to mix. The sample was diluted to volume with sample diluent and mixed well. The reference solution for compound 1001 was stable for up to 7 days stored at 5° C.±3° C., protected from light. The reference solution for compound 1002 was stable for up to 3 days stored at 5° C.±3° C., protected from light.
Ophthalmic formulations of compounds 1001 (0.994 g of a 52 mg/mL solution in propylene glycol) or compound 1002 (1.034 g of a 50 mg/mL solution in propylene glycol) were prepared at 500 μg/mL dose strength in potassium phosphate buffer (25 mM, pH 5.5, 0.34 g) with 0.2 M sodium hydroxide solution (q.s.), sodium chloride (0.327 g), polysorbate 80 (0.5% w/v), and purified water (q.s. to 100). Sample solutions of compounds 1001 and 1002 were each prepared by accurately weighing approximately 20 mg of the 500 μg/mL compound formulation into a 1 mL amber volumetric flask. Approximately 0.5 mL of sample diluent was added and the solution gently swirled to mix. The solution was diluted to volume with sample diluent and mixed well.
The following equation was used to calculate the compound 1001 or compound 1002 purity assay (% area) in each sample: Analogue Content(% area)=(Area of analog/Total area of all peaks≧0.10% area)×100.
Impurities≧0.10% area were integrated and reported as % area to 2 decimal places.
Tables 5 and 6 show the results of the chemical stability study of compounds 1001 and 1002, respectively, over the course of 8 weeks at 5° C.

| SMILES | dryness, visual analog scale of 0-5, change as compared to vehicle ([1]; day 28, dose C (275.6 μg/mL) topically, FIG. 4) | change in ocular discomfort as compared to vehicle (ORA Ocular Discomfort Scale), improvement ([1]; day 28, approx. 30 μL drop to both eyes BID, FIG. 2) [%] | change in ocular discomfort as compared to vehicle (ORA Ocular Discomfort Scale), improvement ([1]; day 29, 24 hours after last treatment, FIG. 3) [%] | levels of compound 1003 observed in the aqueous humor, the vitreous and the cornea (FIG. 1) [2] | % Area Compound ([3]; 2 weeks) [% Area] | % Area Impurity ([3]; 2 weeks) [% Area] | % Area Compound ([3]; 4 weeks) [% Area] | % Area Impurity ([3]; 4 weeks) [% Area] | chemical stability compared (percent purity over time) ([3]; 8 weeks at 5° C., compound 1001 versus compound 1002) | % Area Compound ([3]; 8 weeks) [% Area] | % Area Impurity ([3]; 8 weeks) [% Area] | % Area Compound ([3]; Initial) [% Area] | % Area Impurity ([3]; Initial) [% Area] | time the reference solution was stable [3] | % Area Compound ([3]; 1 week) [% Area] | % Area Impurity ([3]; 1 week) [% Area] |
| --- | --- | --- | --- | --- | --- | --- | --- | --- | --- | --- | --- | --- | --- | --- | --- | --- |
| C#CC[C@@H](O)/C=C/C=C/C#C[C@@H](O)CCCC(=O)OC(C)C [Compound 1001] | significant change | ~27 | ~36 | comparable levels | 99.03 | 0.97 | 99.39 | 0.61 | better chemical stability | 99.31 | 0.69 | 99.55 | 0.45 | up to 7 days |  |  |
| C#CC[C@@H](O)/C=C/C=C/C#C[C@@H](O)CCCC(=O)OC [Compound 1002] |  |  |  | comparable levels | 97.46 | 2.55 | 96.54 | 3.46 |  | 94.95 | 5.05 | 98.29 | 1.71 | up to 3 days | 97.58 | 2.43 |
